The record followed here is ChEMBL document CHEMBL2321738, “Metabolites of the pyrimidine amine preladenant as adenosine a2a receptor antagonists” (ACS Med Chem Lett, 2013).

The test has as its target Adenosine receptor A2a (Homo sapiens, UniProt P29274). Description: Binding affinity to human adenosine A2a receptor by competition binding assay.

Molecules are shown by their SMILES. pKi: −log10 of the molar value.

Chain of Adenosine receptor A2a (P29274 whole entry): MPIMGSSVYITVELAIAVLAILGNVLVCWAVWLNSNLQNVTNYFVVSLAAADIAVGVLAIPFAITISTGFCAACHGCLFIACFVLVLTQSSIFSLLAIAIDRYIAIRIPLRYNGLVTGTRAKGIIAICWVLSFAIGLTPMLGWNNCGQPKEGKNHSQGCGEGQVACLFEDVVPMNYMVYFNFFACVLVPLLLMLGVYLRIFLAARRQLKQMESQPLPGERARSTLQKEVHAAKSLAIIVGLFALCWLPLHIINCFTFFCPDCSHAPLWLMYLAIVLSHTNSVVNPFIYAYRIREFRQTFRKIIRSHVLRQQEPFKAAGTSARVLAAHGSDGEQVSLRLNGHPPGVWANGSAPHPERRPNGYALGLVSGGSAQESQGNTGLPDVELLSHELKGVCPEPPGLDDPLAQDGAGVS

The pKi is −log10 of the Ki, conventionally taken in molar units. Low values mean a large Ki, high ones a small Ki. Molecule `Nc1nc2c(cnn2CCN2CCN(c3ccc(OCC(=O)O)cc3)CC2)c2nc(-c3ccco3)nn12` gave a pKi of 8.85.
Under `COCCOc1ccc(N2CCN(CCn3ncc4c3nc(N)n3nc(C(O)CCC(=O)O)nc43)CC2)cc1` (centres undefined) stands < 6.00; under `Nc1nc2c(cnn2CC(=O)O)c2nc(-c3ccco3)nn12`, < 6.00.
Under `Nc1nc2c(cnn2CCN2CCN(c3ccc(OCC(=O)O)cc3)CC2)c2nc(C(O)CCC(=O)O)nn12` (centres undefined) stands < 6.00.
